Assay results published in patent publication US20230139171A1 (SITA Information Networking Computing UK Limited, priority 2019, published 2023).

Columns and labels:
Assay type in all cases: cell-based
human TLR9 = target: T1, human TLR9 (Homo sapiens, UniProt Q9NR96); experiment: TLR9 inhibition reporter assay (HEK-Blue cells, SEAP reporter, ODN2006 stimulation); conditions: HEK-Blue cells overexpressing human TLR9, SEAP reporter, ODN2006 5 nM
T1 construct: host or cells: HEK-Blue cells
T1 sequence (Q9NR96 26-1032): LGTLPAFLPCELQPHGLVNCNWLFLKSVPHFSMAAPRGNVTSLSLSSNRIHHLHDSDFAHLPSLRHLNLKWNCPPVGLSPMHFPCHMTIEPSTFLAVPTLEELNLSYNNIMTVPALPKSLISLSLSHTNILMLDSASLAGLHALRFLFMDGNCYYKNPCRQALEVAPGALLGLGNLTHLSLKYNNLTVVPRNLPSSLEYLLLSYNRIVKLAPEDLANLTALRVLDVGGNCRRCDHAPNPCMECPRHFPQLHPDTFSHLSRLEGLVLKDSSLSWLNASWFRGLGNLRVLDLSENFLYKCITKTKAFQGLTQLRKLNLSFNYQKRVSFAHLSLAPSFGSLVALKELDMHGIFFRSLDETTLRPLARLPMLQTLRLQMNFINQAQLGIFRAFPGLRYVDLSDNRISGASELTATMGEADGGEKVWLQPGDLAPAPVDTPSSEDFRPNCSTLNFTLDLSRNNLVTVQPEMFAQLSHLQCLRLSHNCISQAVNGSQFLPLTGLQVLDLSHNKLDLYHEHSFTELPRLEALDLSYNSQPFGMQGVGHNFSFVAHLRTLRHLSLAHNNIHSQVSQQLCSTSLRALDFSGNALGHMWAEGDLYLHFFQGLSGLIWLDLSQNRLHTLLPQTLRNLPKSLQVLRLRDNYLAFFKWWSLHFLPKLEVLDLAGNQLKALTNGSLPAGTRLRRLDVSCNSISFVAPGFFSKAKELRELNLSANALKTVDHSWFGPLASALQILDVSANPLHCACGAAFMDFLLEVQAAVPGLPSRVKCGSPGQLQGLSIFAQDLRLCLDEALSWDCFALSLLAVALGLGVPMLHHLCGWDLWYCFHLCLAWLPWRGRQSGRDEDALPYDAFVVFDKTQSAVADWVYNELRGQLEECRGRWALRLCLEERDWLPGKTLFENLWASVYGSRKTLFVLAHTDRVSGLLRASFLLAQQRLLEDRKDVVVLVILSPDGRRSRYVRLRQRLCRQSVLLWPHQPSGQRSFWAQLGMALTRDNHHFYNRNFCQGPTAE
In short: (§1)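 Agonists used: gardiquimod 7.5 μM (TLR7), R848 15.9 μM (TLR8), ODN2006 5 nM (TLR9), added after 30 min room-temperature compound pre-treatment (0.05 nM–50 μM) of receptor-overexpressing HEK-Blue cells. SEAP reporter (NF-κB/AP-1 driven) read after 22 h at 37 °C; inhibition scaled between agonist+DMSO and reference-inhibitor wells.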

human TLR8 = target: T2, human TLR8 (Homo sapiens, UniProt Q9NR97); experiment: TLR8 inhibition reporter assay (HEK-Blue cells, SEAP reporter, R848 stimulation); conditions: HEK-Blue cells overexpressing human TLR8, SEAP reporter, R848 15.9 μM; read-out: TLR8 IC50
T2 construct: host or cells: HEK-Blue cells
T2 sequence (Q9NR97 27-1041): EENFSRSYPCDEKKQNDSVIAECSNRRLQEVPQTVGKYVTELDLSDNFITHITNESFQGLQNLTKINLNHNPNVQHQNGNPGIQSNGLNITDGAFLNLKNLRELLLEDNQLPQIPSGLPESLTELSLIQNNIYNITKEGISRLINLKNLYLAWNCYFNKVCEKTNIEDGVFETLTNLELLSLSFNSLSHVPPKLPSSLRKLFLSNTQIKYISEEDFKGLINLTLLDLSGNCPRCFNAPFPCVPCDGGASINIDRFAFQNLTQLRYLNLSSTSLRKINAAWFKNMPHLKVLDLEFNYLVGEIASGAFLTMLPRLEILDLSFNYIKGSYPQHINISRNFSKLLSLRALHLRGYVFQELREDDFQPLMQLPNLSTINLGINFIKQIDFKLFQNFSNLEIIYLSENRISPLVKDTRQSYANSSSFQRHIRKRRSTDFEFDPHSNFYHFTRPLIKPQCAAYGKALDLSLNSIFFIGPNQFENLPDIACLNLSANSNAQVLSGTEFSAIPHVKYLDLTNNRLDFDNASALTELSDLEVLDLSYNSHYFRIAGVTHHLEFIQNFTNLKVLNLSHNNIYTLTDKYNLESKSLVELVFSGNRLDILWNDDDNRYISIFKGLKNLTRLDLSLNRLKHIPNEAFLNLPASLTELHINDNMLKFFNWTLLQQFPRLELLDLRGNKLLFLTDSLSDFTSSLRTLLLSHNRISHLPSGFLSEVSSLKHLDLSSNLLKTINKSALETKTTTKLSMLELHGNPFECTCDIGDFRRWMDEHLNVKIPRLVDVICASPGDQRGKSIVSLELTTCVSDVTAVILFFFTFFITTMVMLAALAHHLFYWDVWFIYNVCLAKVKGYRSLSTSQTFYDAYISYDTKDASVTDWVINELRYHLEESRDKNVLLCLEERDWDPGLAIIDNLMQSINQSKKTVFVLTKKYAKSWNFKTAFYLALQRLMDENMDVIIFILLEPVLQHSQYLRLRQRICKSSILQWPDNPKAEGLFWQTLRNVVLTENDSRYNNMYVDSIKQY
In short: as §1

human TLR7 = target: T3, human TLR7 (Homo sapiens, UniProt Q9NYK1); experiment: TLR7 inhibition reporter assay (HEK-Blue cells, SEAP reporter, gardiquimod stimulation); conditions: HEK-Blue cells overexpressing human TLR7, SEAP reporter, gardiquimod 7.5 μM; read-out: TLR7 IC50
T3 construct: host or cells: HEK-Blue cells
T3 sequence (Q9NYK1 27-1049): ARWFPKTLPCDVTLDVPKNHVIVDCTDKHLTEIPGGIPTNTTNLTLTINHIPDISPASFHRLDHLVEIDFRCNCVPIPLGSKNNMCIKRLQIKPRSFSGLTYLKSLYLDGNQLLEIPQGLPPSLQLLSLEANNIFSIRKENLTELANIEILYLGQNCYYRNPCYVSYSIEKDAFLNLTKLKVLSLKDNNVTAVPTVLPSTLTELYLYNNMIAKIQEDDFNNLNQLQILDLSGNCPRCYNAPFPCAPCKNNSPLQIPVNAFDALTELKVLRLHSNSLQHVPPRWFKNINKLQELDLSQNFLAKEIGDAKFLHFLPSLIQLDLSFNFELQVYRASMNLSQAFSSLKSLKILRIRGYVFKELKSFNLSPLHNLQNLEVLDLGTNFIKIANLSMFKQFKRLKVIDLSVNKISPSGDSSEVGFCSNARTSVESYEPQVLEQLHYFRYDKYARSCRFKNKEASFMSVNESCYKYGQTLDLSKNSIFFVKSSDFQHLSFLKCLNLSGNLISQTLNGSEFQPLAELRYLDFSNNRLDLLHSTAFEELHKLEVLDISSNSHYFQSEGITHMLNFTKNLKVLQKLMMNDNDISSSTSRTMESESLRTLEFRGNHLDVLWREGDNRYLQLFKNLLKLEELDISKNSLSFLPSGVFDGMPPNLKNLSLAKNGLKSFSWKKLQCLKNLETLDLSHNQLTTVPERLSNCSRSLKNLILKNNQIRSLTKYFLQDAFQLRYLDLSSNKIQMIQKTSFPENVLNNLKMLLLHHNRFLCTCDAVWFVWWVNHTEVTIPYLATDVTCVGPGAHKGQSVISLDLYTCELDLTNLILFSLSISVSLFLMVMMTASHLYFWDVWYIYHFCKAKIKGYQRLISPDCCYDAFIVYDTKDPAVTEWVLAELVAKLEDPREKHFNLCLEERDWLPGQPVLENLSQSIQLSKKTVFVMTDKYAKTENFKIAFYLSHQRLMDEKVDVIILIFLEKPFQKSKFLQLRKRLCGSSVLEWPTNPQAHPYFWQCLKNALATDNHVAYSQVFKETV
In short: as §1

| IC50 (human TLR9) [nM] | IC50 (human TLR8) [nM] | IC50 (human TLR7) [nM] | SMILES |
| --- | --- | --- | --- |
| 5700 | 4.49 | 1.34 | COc1cc(-c2[nH]c3sc(C4CCC(NC5(C)CCC5)CC4)nc3c2C(C)C)cn2ncnc12 (single isomer, unassigned) [Example 108, 4-(6-isopropyl-5-(8-methoxy-[1,2,4]triazolo[1,5-a]pyridin-6-yl)-4H-pyrrolo[3,2-d]thiazol-2-yl)-N-(1-methylcyclobutyl) cyclohexan-1-amine] |
| 6090 | 27.9 | 6.81 | COc1cc(-c2[nH]c3sc(C4CCC(NC5(C)CCC5)CC4)nc3c2C(C)C)cn2ncnc12 (single isomer, unassigned) [Example 109, 4-(6-isopropyl-5-(8-methoxy-[1,2,4]triazolo[1,5-a]pyridin-6-yl)-4H-pyrrolo[3,2-d]thiazol-2-yl)-N-(1-methylcyclobutyl) cyclohexan-1-amine] |
| 5780 | 0.93 | 2.21 | COc1cc(-c2[nH]c3sc(C4CCC(N5CC6(CCOCC6)C5)CC4)nc3c2C(C)C)cn2ncnc12 (single isomer, unassigned) [Example 110, 2-(4-(6-isopropyl-5-(8-methoxy-[1,2,4]triazolo[1,5-a]pyridin-6-yl)-4H-pyrrolo[3,2-d]thiazol-2-yl)cyclohexyl)-7-oxa-2-azaspiro[3.5]nonane] |
| 3930 | 33.7 | 2.97 | COc1cc(-c2[nH]c3sc(C4CCC(N5CC6(CCOCC6)C5)CC4)nc3c2C(C)C)cn2ncnc12 (single isomer, unassigned) [Example 111, 2-(4-(6-isopropyl-5-(8-methoxy-[1,2,4]triazolo[1,5-a]pyridin-6-yl)-4H-pyrrolo[3,2-d]thiazol-2-yl)cyclohexyl)-7-oxa-2-azaspiro[3.5]nonane] |
| > 50000 | 28.3 | 11.4 | COc1cc(-c2[nH]c3sc(C4CCC(N5CCC6(CC5)COC6)CC4)nc3c2C(C)C)cn2ncnc12 (single isomer, unassigned) [Example 112, 7-(4-(6-isopropyl-5-(8-methoxy-[1,2,4]triazolo[1,5-a]pyridin-6-yl)-4H-pyrrolo[3,2-d]thiazol-2-yl)cyclohexyl)-2-oxa-7-azaspiro[3.5]nonane] |
| 7800 | 27.1 | 1.09 | COc1cc(-c2[nH]c3sc(C4CCC(N5CCC6(CC5)COC6)CC4)nc3c2C(C)C)cn2ncnc12 (single isomer, unassigned) [Example 113, 7-(4-(6-isopropyl-5-(8-methoxy-[1,2,4]triazolo[1,5-a]pyridin-6-yl)-4H-pyrrolo[3,2-d]thiazol-2-yl)cyclohexyl)-2-oxa-7-azaspiro[3.5]nonane] |
| 1460 | 1.4 | 3.63 | COc1cc(-c2[nH]c3sc(C4CCC(N5CCC6(CCNC6)C5)CC4)nc3c2C(C)C)cn2ncnc12 (single isomer, unassigned) [Example 114, 2-(4-(2,7-diazaspiro[4.4]nonan-2-yl)cyclohexyl)-6-isopropyl-5-(8-methoxy-[1,2,4]triazolo[1,5-a]pyridin-6-yl)-4H-pyrrolo[3,2-d]thiazole] |
| 1210 | 17 | 11.7 | COc1cc(-c2[nH]c3sc(C4CCC(N5CCC6(CCNC6)C5)CC4)nc3c2C(C)C)cn2ncnc12 (single isomer, unassigned) [Example 115, 2-(4-(2,7-diazaspiro[4.4]nonan-2-yl)cyclohexyl)-6-isopropyl-5-(8-methoxy-[1,2,4]triazolo[1,5-a]pyridin-6-yl)-4H-pyrrolo[3,2-d]thiazole] |
| 3880 | 1.91 | 3.11 | COc1cc(-c2[nH]c3sc(C4CCC(NC5CC6(CNC6)C5)CC4)nc3c2C(C)C)cn2ncnc12 (single isomer, unassigned) [Example 116, N-(4-(6-isopropyl-5-(8-methoxy-[1,2,4]triazolo[1,5-a]pyridin-6-yl)-4H-pyrrolo[3,2-d]thiazol-2-yl)cyclohexyl)-2-azaspiro[3.3]heptan-6-amine] |
| 7510 | 22.9 | 5.72 | COc1cc(-c2[nH]c3sc(C4CCC(NC5CC6(CNC6)C5)CC4)nc3c2C(C)C)cn2ncnc12 (single isomer, unassigned) [Example 117, N-(4-(6-isopropyl-5-(8-methoxy-[1,2,4]triazolo[1,5-a]pyridin-6-yl)-4H-pyrrolo[3,2-d]thiazol-2-yl)cyclohexyl)-2-azaspiro[3.3]heptan-6-amine] |
| 3300 | 1.26 | 2 | COc1cc(-c2[nH]c3sc(C4CCC(N5CC(O)(C(F)(F)F)C5)CC4)nc3c2C(C)C)cn2ncnc12 (single isomer, unassigned) [Example 118, 1-(4-(6-isopropyl-5-(8-methoxy-[1,2,4]triazolo[1,5-a]pyridin-6-yl)-4H-pyrrolo[3,2-d]thiazol-2-yl)cyclohexyl)-3-(trifluoromethyl)azetidin-3-ol] |
